Reference: patent US20140248655A1, “QUANTITATIVE SOFT AGAR COLONY FORMATION ASSAY USING TETRAZOLIUM THAT GENERATES WATER-SOLUBLE FORMAZAN” (KAGOSHIMA UNIVERSITY, priority 2011, published 2014)

System: DU145 cells
Test: Method of the invention: soft agar colony formation assay with WST-1, DU145
Type: cell-based, human
Excerpt: The […] compounds used may be able to function as ideal antitumor agents that have PCA-1 inhibitory effects, fewer (and less severe) side effects (cytotoxicity), and high tumor-shrinking effects.

**Q.** For `CC(=O)O[C@H]1C(=O)[C@@]2(C)[C@H]([C@H](OC(=O)c3ccccc3)[C@]3(O)C[C@H](OC(=O)[C@H](O)[C@@H](NC(=O)c4ccccc4)c4ccccc4)C(C)=C1C3(C)C)[C@]1(OC(C)=O)CO[C@@H]1C[C@@H]2O` [Paclitaxel], which “cell viability (%)” value (DU145 10,000 cells/well, culture 1 week, concentrations of FIG. 2) is on record?
**A.** lowered by Paclitaxel as an anticancer agent in a concentration-dependent manner

**Q.** What about the “OD value (OD405) versus number of seeded cells” value (medium containing 100 μmol of Paclitaxel, culture 7 days, FIG. 1) of the same compound?
**A.** the OD value was low, and it was not correlated with the number of cells
